Source: patent US9428456B2, “1-[m-carboxamido(hetero)aryl-methyl]-heterocyclyl-carboxamide derivatives” (Actelion Pharmaceuticals Ltd., priority 2012, dated 2016)

What follows are compounds tested against CXCR7 (Homo sapiens (Human), UniProt P25106) (assay: PathHunter CHO-K1 CXCR7 b-arrestin assay (agonistic activity)). Conditions: PathHunter CHO-K1 CXCR7 b-arrestin cell line.
Format: cell-based
Method in brief: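 CHO-K1 cells co-expressing ProLink-tagged CXCR7 and EA-fused β-arrestin 2 (enzyme fragment complementation); compounds added in HBSS/20 mM HEPES/0.2% BSA after 3–4 h in OPTIMEM, 90 min at 37 °C. Chemiluminescent β-gal signal read after 1 h detection at room temperature; EC50 reported as geometric mean of several measurements.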

CXCR7, sequence (P25106 whole entry): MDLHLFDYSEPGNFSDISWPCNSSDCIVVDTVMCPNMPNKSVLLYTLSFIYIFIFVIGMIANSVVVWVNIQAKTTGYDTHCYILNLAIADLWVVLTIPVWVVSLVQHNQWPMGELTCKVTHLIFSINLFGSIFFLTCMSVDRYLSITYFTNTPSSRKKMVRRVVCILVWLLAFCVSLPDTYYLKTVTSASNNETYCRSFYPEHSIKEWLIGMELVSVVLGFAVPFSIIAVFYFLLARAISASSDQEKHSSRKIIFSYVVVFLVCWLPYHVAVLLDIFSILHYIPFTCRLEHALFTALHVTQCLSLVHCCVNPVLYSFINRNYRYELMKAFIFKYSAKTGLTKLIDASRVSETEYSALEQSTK
CXCR7, sequence (P32121 whole entry partner): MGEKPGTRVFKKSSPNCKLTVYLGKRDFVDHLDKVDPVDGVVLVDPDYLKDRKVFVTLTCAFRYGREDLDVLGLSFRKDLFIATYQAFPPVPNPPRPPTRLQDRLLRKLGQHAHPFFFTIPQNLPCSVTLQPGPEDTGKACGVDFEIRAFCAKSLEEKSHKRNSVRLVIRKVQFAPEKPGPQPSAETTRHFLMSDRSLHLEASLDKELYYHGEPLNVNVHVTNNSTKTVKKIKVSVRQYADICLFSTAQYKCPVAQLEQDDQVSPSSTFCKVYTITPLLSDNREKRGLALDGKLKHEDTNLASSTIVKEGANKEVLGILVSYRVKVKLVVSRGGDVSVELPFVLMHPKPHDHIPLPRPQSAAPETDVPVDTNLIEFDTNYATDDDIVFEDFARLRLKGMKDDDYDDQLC

Row | Compound | EC50 [nM]
1 | Cc1ccc(C(=O)Nc2cccc(CN3CCC(C(=O)NC4CCCCC4)CC3)c2)s1 [Example 1.281] | 3
2 | O=C(Nc1cccc(CN2CCC(C(=O)NC3CCCCC3)CC2)c1)c1ccc(Cl)s1 [Example 1.282] | 5
3 | CC(C)(C)c1ccc(C(=O)Nc2cccc(CN3CCC(C(=O)NC4CCCCC4)CC3)c2)s1 [Example 1.283] | 34
4 | O=C(Nc1ccnc(CN2CCC(C(=O)NC3CCCCC3)CC2)n1)c1cccc(C(F)(F)F)n1 [Example 1.284] | 223
5 | Cc1cncc(C(=O)Nc2ccnc(CN3CCC(C(=O)NC4CCCCC4)CC3)n2)c1 [Example 1.285] | 199
6 | CC(C)(C)NC(=O)C1CCN(Cc2nccc(NC(=O)c3cccc(C(F)(F)F)n3)n2)CC1 [Example 1.286] | 265
7 | O=C(Nc1nc(CN2CCC(C(=O)NC3CCCC3)CC2)cs1)c1ccc(Cl)cc1 [Example 1.293] | 81
8 | Cc1cncc(C(=O)Nc2nc(CN3CCC(C(=O)NC4CCCC4)CC3)cs2)c1 [Example 1.294] | 408
9 | COc1ccc(NC(=O)c2cccc(C(F)(F)F)n2)cc1CN1CCC(C(=O)NC(C)(C)C)CC1 [Example 1.296] | 6
10 | COc1ccc(NC(=O)c2cncc(C)c2)cc1CN1CCC(C(=O)NC(C)(C)C)CC1 [Example 1.297] | 98
11 | COc1ccc(NC(=O)c2ccc(F)cc2)cc1CN1CCC(C(=O)NC(C)(C)C)CC1 [Example 1.298] | 19
12 | Cc1cncc(C(=O)Nc2ccc(C)c(CN3CCC(C(=O)NC(C)(C)C)CC3)c2)c1 [Example 1.299] | 3
13 | Cc1ccc(NC(=O)c2ccc(F)cc2)cc1CN1CCC(C(=O)NC(C)(C)C)CC1 [Example 1.300] | 1
14 | Cc1ccc(CN2CCC(C(=O)NC(C)(C)C)CC2)cc1NC(=O)c1cccc(C(F)(F)F)n1 [Example 1.301] | 2
15 | Cc1cncc(C(=O)Nc2cc(CN3CCC(C(=O)NC(C)(C)C)CC3)ccc2C)c1 [Example 1.302] | 6
16 | Cc1ccc(CN2CCC(C(=O)NC(C)(C)C)CC2)cc1NC(=O)c1ccc(F)cc1 [Example 1.303] | 3

Row | Compound | EC50 [nM]
17 | COc1ccc(CN2CCC(C(=O)NC(C)(C)C)CC2)cc1NC(=O)c1cccc(C(F)(F)F)n1 [Example 1.304] | 4
18 | COc1ccc(CN2CCC(C(=O)NC(C)(C)C)CC2)cc1NC(=O)c1cncc(C)c1 [Example 1.305] | 7
19 | COc1ccc(CN2CCC(C(=O)NC(C)(C)C)CC2)cc1NC(=O)c1ccc(F)cc1 [Example 1.306] | 4
20 | CC(C)(C)NC(=O)C1CCN(Cc2cccc(NC(=O)C3(c4ccccc4)CC3)c2)CC1 [Example 1.309] | 1
21 | CC(C)(C)NC(=O)C1CCN(Cc2cccc(NC(=O)C3(c4ccc(Cl)cc4)CC3)c2)CC1 [Example 1.310] | 2
22 | CC(C)(C)NC(=O)C1CCN(Cc2cccc(NC(=O)C(C)(C)c3ccccc3)c2)CC1 [Example 1.311] | 1
23 | CC(C(=O)Nc1cccc(CN2CCC(C(=O)NC(C)(C)C)CC2)c1)c1ccc(Cl)cc1 (stereo not shown) [Example 1.312] | 8
24 | Cc1c(CN2CCC(C(=O)NC(C)(C)C)CC2)cccc1NC(=O)c1ccc(F)cc1 [Example 1.313] | 19
25 | Cc1cncc(C(=O)Nc2cccc(CN3CCC(C(=O)NC(C)(C)C)CC3)c2C)c1 [Example 1.314] | 145
26 | Cc1c(CN2CCC(C(=O)NC(C)(C)C)CC2)cccc1NC(=O)c1cccc(C(F)(F)F)n1 [Example 1.315] | 193
27 | Cc1cc(CN2CCC(C(=O)NC(C)(C)C)CC2)cc(NC(=O)c2cccc(C(F)(F)F)n2)c1 [Example 1.316] | 36
28 | Cc1cc(CN2CCC(C(=O)NC(C)(C)C)CC2)cc(NC(=O)c2cncc(C)c2)c1 [Example 1.317] | 76
29 | Cc1cc(CN2CCC(C(=O)NC(C)(C)C)CC2)cc(NC(=O)c2ccc(F)cc2)c1 [Example 1.318] | 13
30 | COc1c(CN2CCC(C(=O)NC(C)(C)C)CC2)cccc1NC(=O)c1cccc(C(F)(F)F)n1 [Example 1.319] | 45
31 | COc1c(CN2CCC(C(=O)NC(C)(C)C)CC2)cccc1NC(=O)c1cncc(C)c1 [Example 1.320] | 48
